What was measured:
[1] = tested on: Chinese hamster ovary cell line (CHO-K1); test: Cytotoxicity in CHO-K1 cells (MTT) before the micronucleus test; assay type: cell-based; conditions: 24 hours
Method in brief: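 CHO-K1 cells in F-12K with 10% FBS, 37 °C, 5% CO2, exposed to compounds for 24 hours. Viability by MTT, relative to DMSO vehicle at matching concentration; used to pick safe concentrations for the micronucleus test.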

[2] = tested on: human reconstructed epidermis model EpiDerm™; test: Extended skin irritation test in reconstructed human epidermis (EpiDerm), 2 and 7 days; assay type: cell-based; conditions: for Il-1α in culture medium: medium after the first 24 hours
Procedure: In order to perform extended skin irritation (safety) tests on the reconstructed human epidermis, the exposure time to the tested compounds was extended to 2 and 7 days in the human reconstructed epidermis model EpiDerm™ from MatTek. The epidermis was cultured according to the manufacturer's recommendations, using appropriate multi-well plates and culture media. Solutions of the tested compounds were applied to the epidermis using a positive displacement pipette and distributed using a sterile glass bulb headed Pasteur pipette. […] The epidermis was cultured in an incubator ensuring appropriate humidity, temperature (37 °C) and CO2 concentration (5%). The medium was replaced daily. After an appropriate incubation time, i.e. 2 days or 7 days, the epidermis was rinsed with sterile DPBS and incubated with MTT (Thiazolyl Blue Tetrazolium bromide) solution at 37 °C for 3 hours. After this time, a purple color of formazan was observed, correlated with tissue viability. […] Moreover, in the medium collected after the first 24 hours of EpiDerm epidermis culture, the level of interleukin 1α (Il-1α), which is a mediator of inflammation, was determined. Its level correlates with the unfavorable (irritating) effect of the tested substances on the epidermis. The level of IL-1α was determined using the Cayman Elisa test. […] Table 6. Viability results and results of interleukin 1α concentration measurement in the culture medium in the irritation test in the reconstructed human epidermis model EpiDerm.

S. typhimurium TA100 = test: Ames microplate test, TA100; assay type: cell-based, Salmonella typhimurium;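 also: reference level is the mean solvent-control yellow wells plus SD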
Procedure: Bacteria were grown overnight in growth medium.
Table 9. Ames microplate test results.

[3] = tested on: Chinese hamster ovary cell line (CHO-K1); test: Genotoxicity in the micronucleus test in CHO-K1 cells; assay type: cell-based
E. coli WP2 = test: Ames microplate test, E. coli WP2;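 also: bacteria treated 90 min at 37 °C in 24-well plates, then indicator medium dispensed to 384-well plates and incubated 48 h before yellow-well counting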
Procedure: The study used the Ames microplate test (Ames MPF™ Penta 2 by Xenometrix, Allschwil, Switzerland). Growth medium, exposure medium, indicator medium, positive controls, hepatic microsomal fraction, NADP, glucose-6-phosphate, Salmonella typhimurium and Escherichia coli strains were components of the purchased experimental kit. Bacteria were grown overnight in growth medium. They were then exposed to the test compound at the appropriate concentration in exposure medium without or with the rat microsomal fraction S9 in 24-well plates for 90 min at 37 °C with shaking. Then, indicator medium was added to the wells and pipetted into 384-well plates, which were incubated for 48 hours at 37 °C without shaking. Results were assessed by counting the wells in which the medium turned yellow for each experimental condition.

Keratinocytes (HaCaT) [4] = test: Safety, LDH test in keratinocytes; assay type: cell-based; conditions: 48 hours, positive control Triton X-100
Procedure: (§1) In order to test the safety of the compounds, both normal human cells were used: keratinocytes (HaCaT), fibroblasts (BJ), primary melanocytes that occur in the skin, as well as human cancer cells: the hepatocarcinoma line HepG2 and the neuroblastoma line SH-SY5Y, which are considered a model for the assessment of hepatocytotoxicity and neurocytotoxicity. The concentrations of the tested compounds in the range of 250-100 µM were used in the studies. The cell lines used in the research were purchased from the American Type Culture Collection (ATCC) and were cultured in media recommended by the manufacturer with the addition of FBS and antibiotics in an incubator ensuring appropriate culture conditions, i.e. humidity, temperature and CO2 concentration. Cells were seeded into multiwell plates and incubated with the test compounds for 48 hours. After this time, MTT and LDH tests were performed to assess cell viability. The MTT test is based on the ability to transform the substrate: [3-(4,5-dimethyl-2-thiazolyl)-2,5-diphenyl-2H-tetrazolium bromide into a colored product only by living cells. The absorbance at 570 nm, which corresponds to the absorption maximum for the product, is directly proportional to cell viability. The LDH test is based on testing the activity of the enzyme lactate dehydrogenase in the culture medium, which is released from cells as a result of damage to the cell membrane, e.g. as a result of cell death. Triton X-100 was used as a positive control in the test. The determination is colorimetric, the substrate is transformed by the released enzyme into a colored product, an increase in absorbance indicates a larger amount of the released enzyme, and thus confirms greater damage to cell membranes. Tables 7 and 8 present the results obtained, which correspond to the viability of cells incubated with the compounds in relation to the viability of cells constituting a control sample, i.e. incubated with the solvent (DMSO) at the same concentration as in the case of the groups tested in the MTT test or in relation to the results obtained for the Triton X-100 positive control in the LDH test. They indicate that the compounds are safe at the concentrations tested. Table 7. Viability of tested normal human cell lines: keratinocytes (HaCaT), fibroblasts (BJ) and primary melanocytes after incubation with the tested compounds - determination in the MTT test (% of solvent control ± SD) and LDH (percentage of positive control - Triton X-100.

neuroblastoma SH-SY5Y = test: Safety, MTT test in SH-SY5Y; assay type: cell-based; conditions: 48 hours
Procedure: as §1

Keratinocytes (HaCaT) [5] = test: Safety, MTT test in keratinocytes; assay type: cell-based; conditions: 48 hours
Procedure: as §1

Hepatocarcinoma HepG2 = test: Safety, LDH test in HepG2; assay type: cell-based; conditions: 48 hours, positive control Triton X-100
Procedure: as §1

Fibroblasts (BJ) = test: Safety, MTT test in fibroblasts; assay type: cell-based; conditions: 48 hours
Procedure: as §1

[6] = 2 days, 1.0% in 50% PEG (10 µL)
[7] = 7 days, 1.0% in 50% PEG (10 µL)

Structure (SMILES): O=C(/C=C/c1ccccc1)NCCCCCCO [H-425/21, (E)-N-(6-hydroxyhexyl)cinnamic acid amide]
- % Viability [mean] ([1]; 100 µM): 87.6%
- % Viability [mean] ([1]; 150 µM): 83.8%
- % Viability [mean] ([1]; 200 µM): 88.0%
- Il-1α in culture medium ([2]; 1.0% in 50% PEG (10 µL)): 60.29 ± 1.08 pg/mL
- Viability [% of control, mean±SD] [2, 6]: 99.75±15.49 % of control
- Viability [% of control, mean±SD] [2, 7]: 104.01±1.11 % of control
- Increase in the number of yellow wells compared to the reference level (S. typhimurium TA100; 0.5 mM, +S9): 0.50
- Increase in the number of yellow wells compared to the reference level (S. typhimurium TA100; 0.5 mM, without S9): 0.73
- Increase in the number of yellow wells compared to the reference level (S. typhimurium TA100; 1.0 mM, +S9): 0.69
- Increase in the number of yellow wells compared to the reference level (S. typhimurium TA100; 1.0 mM, without S9): 0.80
- Increase in the number of yellow wells compared to the reference level (S. typhimurium TA100; 2.0 mM, +S9): 0.58
- Increase in the number of yellow wells compared to the reference level (S. typhimurium TA100; 2.0 mM, without S9): 0.73
- DB (dicentric bridges in 1000 binucleate cells) ([3]; 100 µM): 2.5 ± 0.7
- MN (number of micronuclei in 1000 binucleate cells) ([3]; 100 µM): 11.0 ± 4.2
- NB (nuclear buds in 1000 binucleate cells) ([3]; 100 µM): 3.5 ± 0.7
- NDI (nuclear division index) ([3]; 100 µM): 1.56
- DB (dicentric bridges in 1000 binucleate cells) ([3]; 150 µM): 2.5 ± 2.1
- MN (number of micronuclei in 1000 binucleate cells) ([3]; 150 µM): 11.5 ± 0.7
- NB (nuclear buds in 1000 binucleate cells) ([3]; 150 µM): 3.5 ± 0.7
- NDI (nuclear division index) ([3]; 150 µM): 1.52
- DB (dicentric bridges in 1000 binucleate cells) ([3]; 200 µM): 4.5 ± 3.5
- MN (number of micronuclei in 1000 binucleate cells) ([3]; 200 µM): 12.5 ± 6.4
- NB (nuclear buds in 1000 binucleate cells) ([3]; 200 µM): 5.5 ± 0.7
- NDI (nuclear division index) ([3]; 200 µM): 1.60
- Increase in the number of yellow wells compared to the reference level (E. coli WP2; 0.5 mM, +S9): 0.75
- Increase in the number of yellow wells compared to the reference level (E. coli WP2; 0.5 mM, without S9): 0.17
- Increase in the number of yellow wells compared to the reference level (E. coli WP2; 1.0 mM, +S9): 0.83
- Increase in the number of yellow wells compared to the reference level (E. coli WP2; 1.0 mM, without S9): 0.67
- Increase in the number of yellow wells compared to the reference level (E. coli WP2; 2.0 mM, +S9): 0.75
- Increase in the number of yellow wells compared to the reference level (E. coli WP2; 2.0 mM, without S9): 1.00

Structure (SMILES): O=C(/C=C/c1ccc(Cl)cc1)NCCCCCO [Compound A-111, (2E)-3-(4-chlorophenyl)-N-(5-hydroxypentyl)prop-2-enamide]
- % Viability [mean] ([1]; 100 µM): 86.1%
- % Viability [mean] ([1]; 150 µM): 95.6%
- % Viability [mean] ([1]; 200 µM): 98.6%
- Keratinocytes (HaCaT) LDH (Keratinocytes (HaCaT) [4]; 100 µM): 4.69 percentage of positive control
- Keratinocytes (HaCaT) LDH (Keratinocytes (HaCaT) [4]; 150 µM): 4.43 percentage of positive control
- Keratinocytes (HaCaT) LDH (Keratinocytes (HaCaT) [4]; 200 µM): 6.49 percentage of positive control
- Keratinocytes (HaCaT) LDH (Keratinocytes (HaCaT) [4]; 250 µM): 13.55 percentage of positive control
- Il-1α in culture medium ([2]; 1.0% in 50% PEG (10 µL)): 15.89 ± .057 pg/mL
- Viability [% of control, mean±SD] ([2]; 2 days, 0.1% in 50% PEG (10 µL)): 88.42±1.25 % of control
- Viability [% of control, mean±SD] ([2]; 2 days, 0.5% in 50% PEG (10 µL)): 92.02±3.47 % of control
- Viability [% of control, mean±SD] [2, 6]: 98.56±11.78 % of control
- Viability [% of control, mean±SD] ([2]; 7 days, 0.1% in 50% PEG (10 µL)): 107.77±3.12 % of control
- Viability [% of control, mean±SD] ([2]; 7 days, 0.5% in 50% PEG (10 µL)): 113.85±4.03 % of control
- Viability [% of control, mean±SD] [2, 7]: 100.41±1.52 % of control
- Increase in the number of yellow wells compared to the reference level (S. typhimurium TA100; 0.5 mM, +S9): 0.97
- Increase in the number of yellow wells compared to the reference level (S. typhimurium TA100; 0.5 mM, without S9): 0.74
- Increase in the number of yellow wells compared to the reference level (S. typhimurium TA100; 1.0 mM, +S9): 0.47
- Increase in the number of yellow wells compared to the reference level (S. typhimurium TA100; 1.0 mM, without S9): 0.39
- Increase in the number of yellow wells compared to the reference level (S. typhimurium TA100; 2.0 mM, +S9): 0.67
- Increase in the number of yellow wells compared to the reference level (S. typhimurium TA100; 2.0 mM, without S9): 0.42
- DB (dicentric bridges in 1000 binucleate cells) ([3]; 100 µM): 2.5 ± 0.7
- MN (number of micronuclei in 1000 binucleate cells) ([3]; 100 µM): 4.5 ± 3.5
- NB (nuclear buds in 1000 binucleate cells) ([3]; 100 µM): 2.0 ± 2.8
- NDI (nuclear division index) ([3]; 100 µM): 1.60
- DB (dicentric bridges in 1000 binucleate cells) ([3]; 150 µM): 4.0 ± 2.8
- MN (number of micronuclei in 1000 binucleate cells) ([3]; 150 µM): 9.0 ± 5.7
- NB (nuclear buds in 1000 binucleate cells) ([3]; 150 µM): 6.0 ± 1.0
- NDI (nuclear division index) ([3]; 150 µM): 1.64
- DB (dicentric bridges in 1000 binucleate cells) ([3]; 200 µM): 2.0 ± 2.8
- MN (number of micronuclei in 1000 binucleate cells) ([3]; 200 µM): 10.0 ± 4.2
- NB (nuclear buds in 1000 binucleate cells) ([3]; 200 µM): 2.5 ± 0.7
- NDI (nuclear division index) ([3]; 200 µM): 1.64
- Neuroblastoma SH-SYSY MTT (neuroblastoma SH-SY5Y; 100 µM): 100.14±3.22 % of solvent control
- Neuroblastoma SH-SYSY MTT (neuroblastoma SH-SY5Y; 150 µM): 99.32±3.36 % of solvent control
- Neuroblastoma SH-SYSY MTT (neuroblastoma SH-SY5Y; 200 µM): 100.55±2.31 % of solvent control
- Neuroblastoma SH-SYSY MTT (neuroblastoma SH-SY5Y; 250 µM): 99.93±4.36 % of solvent control
- Keratinocytes (HaCaT) MTT (Keratinocytes (HaCaT) [5]; 100 µM): 101.68±3.45 % of solvent control
- Keratinocytes (HaCaT) MTT (Keratinocytes (HaCaT) [5]; 150 µM): 101.56±1.94 % of solvent control
- Keratinocytes (HaCaT) MTT (Keratinocytes (HaCaT) [5]; 200 µM): 101.04±2.77 % of solvent control
- Keratinocytes (HaCaT) MTT (Keratinocytes (HaCaT) [5]; 250 µM): 91.57±2.10 % of solvent control
- Increase in the number of yellow wells compared to the reference level (E. coli WP2; 0.5 mM, +S9): 0.62
- Increase in the number of yellow wells compared to the reference level (E. coli WP2; 0.5 mM, without S9): 1.46
- Increase in the number of yellow wells compared to the reference level (E. coli WP2; 1.0 mM, +S9): 0.71
- Increase in the number of yellow wells compared to the reference level (E. coli WP2; 1.0 mM, without S9): 1.10
- Increase in the number of yellow wells compared to the reference level (E. coli WP2; 2.0 mM, +S9): 0.98
- Increase in the number of yellow wells compared to the reference level (E. coli WP2; 2.0 mM, without S9): 1.10
- Hepatocarcinoma HepG2 LDH (Hepatocarcinoma HepG2; 100 µM): 4.90 percentage of positive control
- Hepatocarcinoma HepG2 LDH (Hepatocarcinoma HepG2; 150 µM): 4.73 percentage of positive control
- Hepatocarcinoma HepG2 LDH (Hepatocarcinoma HepG2; 200 µM): 5.48 percentage of positive control
- Hepatocarcinoma HepG2 LDH (Hepatocarcinoma HepG2; 250 µM): 9.75 percentage of positive control
- Fibroblasts (BJ) MTT (Fibroblasts (BJ); 100 µM): 99.88±5.25 % of solvent control
- Fibroblasts (BJ) MTT (Fibroblasts (BJ); 150 µM): 100.94±3.37 % of solvent control
- Fibroblasts (BJ) MTT (Fibroblasts (BJ); 200 µM): 98.94±4.04 % of solvent control
- Fibroblasts (BJ) MTT (Fibroblasts (BJ); 250 µM): 94.51±5.03 % of solvent control

From patent publication EP4324461A1, “(E)-N-CINAMOYLAMINOALKANOLES WITH MELANOGENESIS INHIBITORY ACTIVITY” (UNIWERSYTET JAGIELLONSKI, priority 2022, dated 2024)
